Experimental findings from patent US20010000177A1, “Novel class of thiomorpholino substituted thiazoles” (priority 1999, published 2001) are described below.

Format in all cases: cell-based
The subject of test [1] is Candida and Cryptococcus strains (organism not given). Kind of test: Broth microdilution antifungal activity, Table II second MIC/MCC column pair. As to conditions: second column pair of Table II; for MIC = Minimum inhibitory concentration (50% Inhibition): 48 hrs, 35° C., YNB broth pH 7.0; for MCC = Minimum cytolytic concentration: subculture on SDA plate. The method, then: (§1) Organisms: Three strains of Candida (Candida parpsilosis, Candida tropicalis, Candida albicans-ATCC 36082) as well as Cryptococcus neoformans were used for the initial testing. Active compounds were then tested against fluconazole resistant Candida albicans, Candida krusei, Torulopsis glabrata, and Cryptococcus neoformans along with Sporothrix shenkii and Aspergillus flavus in the secondary round of testing. All clinical strains used in this study were blood culture isolates from the Clinical Microbiology Laboratory of Harbor-UCLA Medical Center, Torrance, Calif. The organisms were maintained on Sabourahd Dextrose Agar slants at 4° C. For experimentation, singlet suspensions of each organism were prepared by growing the yeast overnight at 27° C. on a rotating drum in yeast-nitrogen base broth (YNB) with amino acids (Difco, Detroit, Mich.), pH 7.0 with 0.05M morpholinepropanesulfonic acid (MOPS). The suspension was then centrifuged and washed twice with 0.85% NaCl. This was followed by sonication of the washed cell suspension for 4s (Branson Sonifier, model 350, Danbury, Conn.). The singlet blastospores were counted in a hemocytometer and adjusted to the desired concentration in 0.85% NaCl.
(§2) Antifungal Activity: The antifungal activity of the compounds and Fluconazole against the Candida and Cryptococcus strains were determined using a modification of a broth microdilution technique. Test compounds were diluted in DMSO to a 1.0 mg/ml ratio then diluted to 64 μg/ml in YNB broth, pH 7.0 with MOPS (Fluconazole was used as the control). This was to provide a working solution of each compound. Using a 96-well plate, wells 1 and 3 through 12 were prepared with YNB broth, […] dilutions of the compound solution were made in wells 2 through 11 (concentration ranges were 64 to 0.125 μg/ml). Well one served as a sterility control and blank for the spectrophotometric assays. Well twelve served as a growth control. The microtiter plates were inoculated with 10 ul in each of well 2 through 11 (final inoculum size was 10^4 organisms/ml). Inoculated plates were incubated for 48 hrs., at 35° C. The MIC values were determined spectrophotometrically by measuring the absorbance at 420 nm (Automatic Microplate Reader, DuPont Instruments, Wilmington, Del.) after agitation of the plates for 2 min with a vortex-mixer (Vorte-Genie 2 Mixer, Scientific Industries, Inc., Bolemia, N.Y.). […] With the turbidity assay this was defined as the lowest drug concentration at which turbidity in the well was <50% of the control (IC50) Minimal Cytolytic Concentrations (MCC) were determined by subculturing all wells from the 96-well plate onto a Sabourahd Dextrose Agar (SDA) plate and incubated for 1 to 2 days at 35° C. and the viability was checked.
Background: Dilution methods test growth across graded concentrations, often in twofold steps.

Test [2] shares this test system. The experiment in a line: Broth microdilution antifungal activity, Table II fourth MIC/MCC column pair. As to conditions: for MIC = Minimum inhibitory concentration (50% Inhibition) / MCC = Minimum cytolytic concentration: fourth column pair of Table II; for MIC = Minimum inhibitory concentration (50% Inhibition): YNB broth pH 7.0; for MCC = Minimum cytolytic concentration: subculture on SDA plate. The method, then: as §1, with “Active compounds were then tested against fluconazole resistant Candida albicans, Candida krusei, Torulopsis glabrata, and Cryptococcus neoformans along with Sporothrix shenkii and Aspergillus flavus in the secondary round of testing.” left out
as §2

The test system is the same in test [3]. Kind of test: Broth microdilution antifungal activity, Table II first MIC/MCC column pair. As to conditions: for MIC = Minimum inhibitory concentration (50% Inhibition) / MCC = Minimum cytolytic concentration: first column pair of Table II; for MIC = Minimum inhibitory concentration (50% Inhibition): YNB broth pH 7.0; for MCC = Minimum cytolytic concentration: subculture on SDA plate. The method, then: as §1, with “Active compounds were then tested against fluconazole resistant Candida albicans, Candida krusei, Torulopsis glabrata, and Cryptococcus neoformans along with Sporothrix shenkii and Aspergillus flavus in the secondary round of testing.” left out
as §2

The test system is the same in test [4]. Kind of test: Broth microdilution antifungal activity, Table II third MIC/MCC column pair. As to conditions: for MIC = Minimum inhibitory concentration (50% Inhibition): 48 hrs, 35° C., YNB broth pH 7.0; for MCC = Minimum cytolytic concentration: subculture on SDA plate. The method, then: as §1, §2

Converted amounts (≈) assume the structure as drawn. Marks after values point to notes of the source that are not given here. Bounds are passed on as bounds.

Regarding `C[C@@H]1[C@H](O)[C@@H](C)/C=C/C=C/C=C/C=C/C=C/C=C/C=C/[C@H](O[C@@H]2O[C@H](C)[C@@H](O)[C@H](N)[C@@H]2O)C[C@@H]2O[C@](O)(C[C@@H](O)C[C@@H](O)[C@H](O)CC[C@@H](O)C[C@@H](O)CC(=O)O[C@H]1C)C[C@H](O)[C@H]2C(=O)O` [Amp-B, amphotericin B, reference compound], the “MIC = Minimum inhibitory concentration (50% Inhibition)” value was 0.25 µg/mL (≈ 0.271 µM) in test [1]; less than 0.03 µg/mL in test [2] (48 hrs, 35° C.); 0.25 µg/mL (≈ 0.271 µM) in test [3] (48 hrs, 35° C.).
Consider `C=CCN(C)Cc1ccc(-c2csc(-c3ccc(F)cc3)n2)cc1` [Example 1, 2-(4′-fluorophenyl)-4-[4″-(N-methyl-N-allylaminomethyl)phenyl]thiazole], for which the “MIC = Minimum inhibitory concentration (50% Inhibition)” value in test [4] was 4 µg/mL (≈ 11.8 µM); in test [1], 4 µg/mL (≈ 11.8 µM); in test [2] (48 hrs, 35° C.), 4 µg/mL (≈ 11.8 µM); in test [3] (48 hrs, 35° C.) it was 4^c μg/ml. Moreover, the “MCC = Minimum cytolytic concentration” value in test [4], in test [1], in test [2] and in test [3] was 16 µg/mL in each case.
For the molecule `CN(C)Cc1ccc(-c2csc(-c3cccc([N+](=O)[O-])c3)n2)cc1` [Example 1aa, 2-(3′-nitrophenyl)-4-[4″-(dimethylaminomethyl)phenyl]-thiazole], the “MIC = Minimum inhibitory concentration (50% Inhibition)” value in test [4] came out at 4 µg/mL (≈ 11.8 µM); in test [1] it was 4 µg/mL (≈ 11.8 µM); in test [2] (48 hrs, 35° C.) it was 4 µg/mL (≈ 11.8 µM); in test [3] (48 hrs, 35° C.) it was 4 µg/mL (≈ 11.8 µM). Besides, the “MCC = Minimum cytolytic concentration” value in test [4], in test [1], in test [2] and in test [3] was 4 µg/mL each time.
Take `CN(CCO)Cc1ccc(-c2csc(-c3ccc(Cl)cc3)n2)cc1` [Example 1ee, 2-(4′-chlorophenyl)-4-[4″-(N-methyl-N-(2-hydroxyethyl)aminomethyl)-phenyl]thiazole]: the “MIC = Minimum inhibitory concentration (50% Inhibition)” value in test [4] is 4 µg/mL (≈ 11.1 µM); in test [1], 2 µg/mL (≈ 5.57 µM); in test [2] (48 hrs, 35° C.) it was 2 µg/mL (≈ 5.57 µM); in test [3] (48 hrs, 35° C.), 4 µg/mL (≈ 11.1 µM). Also, the “MCC = Minimum cytolytic concentration” value was determined as 8 µg/mL in test [4], 16 µg/mL in test [1], 16 µg/mL in test [2] and 16 µg/mL in test [3].
In the case of `C=CCN(C)Cc1ccc(-c2csc(-c3ccc(Cl)cc3)n2)cc1` [Example 1g, 2-(4′-chlorophenyl)-4-[4″-(N-methyl-N-allylaminomethyl)phenyl]thiazole], the “MIC = Minimum inhibitory concentration (50% Inhibition)” value turned out to be 2 µg/mL (≈ 5.64 µM) in test [4]; 4 µg/mL (≈ 11.3 µM) in test [1]; 2 µg/mL (≈ 5.64 µM) in test [2] (48 hrs, 35° C.); 2 µg/mL (≈ 5.64 µM) in test [3] (48 hrs, 35° C.). Besides, the “MCC = Minimum cytolytic concentration” value in test [4], in test [1], in test [2] and in test [3] was 8 µg/mL in each case.
Consider `CN(C/C=C/c1ccccc1)Cc1cccc2ccccc12` [Naftifine, reference compound], for which the MIC in test [2] (Candida, 48 h, pH 7, fourth column pair of Table II, 48 hrs, 35° C., YNB broth pH 7.0, read-out: MIC = Minimum inhibitory concentration (50% Inhibition)) stood at 4 µg/mL (≈ 13.9 µM); in test [3] (Candida, 48 h, pH 7, first column pair of Table II, 48 hrs, 35° C., YNB broth pH 7.0, read-out: MIC = Minimum inhibitory concentration (50% Inhibition)) it was 32 µg/mL (≈ 111 µM).
